Source: ChEMBL document CHEMBL4152300, “Discovery of the selective and efficacious inhibitors of FLT3 mutations” (Eur J Med Chem, 2018)

Assays:
MV4-11 [1] = experiment: Induction of apoptosis in human MV4-11 cells assessed as early apoptotic cells at 0.2 uM after 24 hrs by Annexin V-FITC/propidium iodide staining based flow cytometry (reference value: 0%); format: functional
[2] = molecular target: Receptor-type tyrosine-protein kinase FLT3 (Homo sapiens, UniProt P36888, F691L/ITD); experiment: Binding affinity to human FLT3 ITD/F691L double mutant expressed in bacterial expression system by Kinomescan method
[3] = molecular target: T1, Receptor-type tyrosine-protein kinase FLT3 (Homo sapiens, UniProt P36888, D835Y); experiment: Inhibition of human FLT3 D835Y mutant by Hotspot assay
[4] = molecular target: T2, Vascular endothelial growth factor receptor 3 (Homo sapiens, UniProt P35916); experiment: Inhibition of human FLT4 at 0.123 uM by Hotspot assay relative to control
T2 sequence (P35916 whole entry): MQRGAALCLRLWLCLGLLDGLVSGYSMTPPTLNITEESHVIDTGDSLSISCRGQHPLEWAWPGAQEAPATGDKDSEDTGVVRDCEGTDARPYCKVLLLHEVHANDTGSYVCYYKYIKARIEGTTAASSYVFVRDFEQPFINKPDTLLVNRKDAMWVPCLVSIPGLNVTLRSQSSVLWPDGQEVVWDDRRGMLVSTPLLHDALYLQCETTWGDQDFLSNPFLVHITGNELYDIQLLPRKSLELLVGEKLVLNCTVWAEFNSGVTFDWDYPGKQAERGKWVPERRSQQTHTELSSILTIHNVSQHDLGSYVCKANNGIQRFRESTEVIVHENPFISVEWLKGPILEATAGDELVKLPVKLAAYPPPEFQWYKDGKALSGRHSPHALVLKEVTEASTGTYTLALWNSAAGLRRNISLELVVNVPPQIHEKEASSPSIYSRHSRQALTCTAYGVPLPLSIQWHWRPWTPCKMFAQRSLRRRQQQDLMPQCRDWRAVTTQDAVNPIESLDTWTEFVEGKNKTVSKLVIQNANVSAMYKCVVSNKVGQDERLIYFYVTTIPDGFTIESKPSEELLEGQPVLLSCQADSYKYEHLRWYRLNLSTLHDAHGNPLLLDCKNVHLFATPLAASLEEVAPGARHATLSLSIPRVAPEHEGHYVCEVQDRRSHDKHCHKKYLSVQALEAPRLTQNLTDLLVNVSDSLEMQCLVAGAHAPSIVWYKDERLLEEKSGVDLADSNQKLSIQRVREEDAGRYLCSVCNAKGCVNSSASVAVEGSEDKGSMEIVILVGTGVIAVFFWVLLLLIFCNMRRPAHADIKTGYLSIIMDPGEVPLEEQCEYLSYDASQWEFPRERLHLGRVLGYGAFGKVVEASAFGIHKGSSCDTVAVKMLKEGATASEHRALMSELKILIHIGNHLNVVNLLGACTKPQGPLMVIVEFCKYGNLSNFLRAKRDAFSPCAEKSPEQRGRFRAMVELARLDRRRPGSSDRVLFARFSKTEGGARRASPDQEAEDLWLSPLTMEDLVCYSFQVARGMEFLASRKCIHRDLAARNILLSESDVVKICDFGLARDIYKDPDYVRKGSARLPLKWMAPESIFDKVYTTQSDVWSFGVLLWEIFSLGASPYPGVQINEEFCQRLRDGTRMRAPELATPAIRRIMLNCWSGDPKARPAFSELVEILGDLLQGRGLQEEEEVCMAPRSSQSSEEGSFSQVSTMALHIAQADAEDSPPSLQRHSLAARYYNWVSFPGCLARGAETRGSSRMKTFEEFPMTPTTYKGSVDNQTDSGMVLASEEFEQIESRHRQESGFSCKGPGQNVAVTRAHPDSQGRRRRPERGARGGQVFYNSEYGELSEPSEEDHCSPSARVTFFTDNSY

[5] = molecular target: Receptor-type tyrosine-protein kinase FLT3 (Homo sapiens, UniProt P36888, ITD); experiment: Inhibition of human FLT3 ITD-NPOS mutant by Hotspot assay
MV4-11 [6] = experiment: Induction of apoptosis in human MV4-11 cells assessed as early apoptotic cells at 0.5 uM after 24 hrs by Annexin V-FITC/propidium iodide staining based flow cytometry (reference value: 0%); format: functional
[7] = molecular target: T2, Vascular endothelial growth factor receptor 3; experiment: Inhibition of human FLT4 by Hotspot assay
[8] = molecular target: T3, Receptor-type tyrosine-protein kinase FLT3 (Homo sapiens, UniProt P36888); experiment: Inhibition of FLT3 phosphorylation at Tyr589/591 residues in human MV4-11 cells after 4 hrs by Western blot analysis; format: cell-based
[9] = molecular target: T3, Receptor-type tyrosine-protein kinase FLT3; experiment: Inhibition of human FLT3 Y591-V592 mutant by Hotspot assay
[10] = molecular target: T4, Vascular endothelial growth factor receptor 2 (Homo sapiens, UniProt P35968); experiment: Inhibition of human KDR by Hotspot assay
T4 sequence (P35968 whole entry): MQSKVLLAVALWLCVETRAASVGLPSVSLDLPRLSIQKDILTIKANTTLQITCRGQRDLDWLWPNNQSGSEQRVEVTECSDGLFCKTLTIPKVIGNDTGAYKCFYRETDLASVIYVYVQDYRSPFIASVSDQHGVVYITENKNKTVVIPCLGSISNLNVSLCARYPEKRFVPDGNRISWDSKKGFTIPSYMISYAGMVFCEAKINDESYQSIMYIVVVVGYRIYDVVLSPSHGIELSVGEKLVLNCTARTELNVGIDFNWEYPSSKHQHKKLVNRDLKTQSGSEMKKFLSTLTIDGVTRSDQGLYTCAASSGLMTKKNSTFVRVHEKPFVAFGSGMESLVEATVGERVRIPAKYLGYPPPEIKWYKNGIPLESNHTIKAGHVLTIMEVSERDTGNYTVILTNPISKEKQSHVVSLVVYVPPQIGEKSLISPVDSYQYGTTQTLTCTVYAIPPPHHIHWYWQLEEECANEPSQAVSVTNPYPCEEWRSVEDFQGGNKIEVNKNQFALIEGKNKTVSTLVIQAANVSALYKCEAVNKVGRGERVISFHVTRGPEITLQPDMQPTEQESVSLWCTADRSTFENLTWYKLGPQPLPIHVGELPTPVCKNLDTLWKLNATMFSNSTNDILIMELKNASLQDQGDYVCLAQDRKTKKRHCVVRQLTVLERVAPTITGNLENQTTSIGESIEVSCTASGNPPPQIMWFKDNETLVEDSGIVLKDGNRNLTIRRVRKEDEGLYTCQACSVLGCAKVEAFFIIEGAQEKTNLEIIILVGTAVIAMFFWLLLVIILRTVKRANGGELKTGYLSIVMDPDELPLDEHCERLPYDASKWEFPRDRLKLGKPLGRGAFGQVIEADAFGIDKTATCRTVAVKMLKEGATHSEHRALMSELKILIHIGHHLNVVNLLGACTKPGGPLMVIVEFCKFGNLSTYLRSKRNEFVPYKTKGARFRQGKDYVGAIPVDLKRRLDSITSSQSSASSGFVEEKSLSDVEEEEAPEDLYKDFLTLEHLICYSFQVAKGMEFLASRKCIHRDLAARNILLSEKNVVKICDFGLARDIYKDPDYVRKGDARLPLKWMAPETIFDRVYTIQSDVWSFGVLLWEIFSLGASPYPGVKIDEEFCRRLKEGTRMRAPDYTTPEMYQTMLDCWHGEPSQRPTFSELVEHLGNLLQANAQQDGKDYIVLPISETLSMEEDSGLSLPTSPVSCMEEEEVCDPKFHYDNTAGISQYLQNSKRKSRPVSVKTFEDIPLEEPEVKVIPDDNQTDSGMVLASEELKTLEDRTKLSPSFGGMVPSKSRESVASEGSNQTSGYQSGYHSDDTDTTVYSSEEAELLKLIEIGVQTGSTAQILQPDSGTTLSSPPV

[11] = molecular target: T3, Receptor-type tyrosine-protein kinase FLT3; experiment: Inhibition of human FLT3 F594_R595insREY mutant by Hotspot assay
HL-60 = experiment: Growth inhibition of human HL60 cells expressing low levels of FLT3 after 72 hrs by Cell-Titer Glo assay; format: functional, cell-based; conditions: HL-60, 72 h
MV4-11 [12] = experiment: Induction of apoptosis in human MV4-11 cells after 24 hrs by Annexin V-FITC/propidium iodide staining based flow cytometry; format: functional, cell-based
[13] = molecular target: Cyclin-dependent kinase 6 (Homo sapiens, UniProt Q00534); experiment: Inhibition of CDK6 (unknown origin) assessed as residual activity at 0.123 uM by Hotspot assay relative to control
Sequence of Cyclin-dependent kinase 6 (Q00534 whole entry): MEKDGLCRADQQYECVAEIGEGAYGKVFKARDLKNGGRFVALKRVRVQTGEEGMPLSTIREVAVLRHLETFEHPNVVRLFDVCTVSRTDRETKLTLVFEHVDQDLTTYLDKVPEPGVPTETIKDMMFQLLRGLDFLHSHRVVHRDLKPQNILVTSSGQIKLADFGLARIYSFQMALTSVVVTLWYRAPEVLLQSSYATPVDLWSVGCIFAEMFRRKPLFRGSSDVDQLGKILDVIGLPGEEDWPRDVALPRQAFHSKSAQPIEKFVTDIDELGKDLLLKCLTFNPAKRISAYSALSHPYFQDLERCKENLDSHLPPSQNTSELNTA

MV4-11 [14] = experiment: Induction of apoptosis in human MV4-11 cells assessed as necrotic cells at 0.2 uM after 24 hrs by Annexin V-FITC/propidium iodide staining based flow cytometry (reference value: 0%); format: functional
[15] = molecular target: T3, Receptor-type tyrosine-protein kinase FLT3; experiment: Inhibition of human FLT3 F594_R595insR mutant by Hotspot assay
[16] = molecular target: Vascular endothelial growth factor receptor 1 (Homo sapiens, UniProt P17948); experiment: Inhibition of human FLT1 by Hotspot assay
Sequence of Vascular endothelial growth factor receptor 1 (P17948 whole entry): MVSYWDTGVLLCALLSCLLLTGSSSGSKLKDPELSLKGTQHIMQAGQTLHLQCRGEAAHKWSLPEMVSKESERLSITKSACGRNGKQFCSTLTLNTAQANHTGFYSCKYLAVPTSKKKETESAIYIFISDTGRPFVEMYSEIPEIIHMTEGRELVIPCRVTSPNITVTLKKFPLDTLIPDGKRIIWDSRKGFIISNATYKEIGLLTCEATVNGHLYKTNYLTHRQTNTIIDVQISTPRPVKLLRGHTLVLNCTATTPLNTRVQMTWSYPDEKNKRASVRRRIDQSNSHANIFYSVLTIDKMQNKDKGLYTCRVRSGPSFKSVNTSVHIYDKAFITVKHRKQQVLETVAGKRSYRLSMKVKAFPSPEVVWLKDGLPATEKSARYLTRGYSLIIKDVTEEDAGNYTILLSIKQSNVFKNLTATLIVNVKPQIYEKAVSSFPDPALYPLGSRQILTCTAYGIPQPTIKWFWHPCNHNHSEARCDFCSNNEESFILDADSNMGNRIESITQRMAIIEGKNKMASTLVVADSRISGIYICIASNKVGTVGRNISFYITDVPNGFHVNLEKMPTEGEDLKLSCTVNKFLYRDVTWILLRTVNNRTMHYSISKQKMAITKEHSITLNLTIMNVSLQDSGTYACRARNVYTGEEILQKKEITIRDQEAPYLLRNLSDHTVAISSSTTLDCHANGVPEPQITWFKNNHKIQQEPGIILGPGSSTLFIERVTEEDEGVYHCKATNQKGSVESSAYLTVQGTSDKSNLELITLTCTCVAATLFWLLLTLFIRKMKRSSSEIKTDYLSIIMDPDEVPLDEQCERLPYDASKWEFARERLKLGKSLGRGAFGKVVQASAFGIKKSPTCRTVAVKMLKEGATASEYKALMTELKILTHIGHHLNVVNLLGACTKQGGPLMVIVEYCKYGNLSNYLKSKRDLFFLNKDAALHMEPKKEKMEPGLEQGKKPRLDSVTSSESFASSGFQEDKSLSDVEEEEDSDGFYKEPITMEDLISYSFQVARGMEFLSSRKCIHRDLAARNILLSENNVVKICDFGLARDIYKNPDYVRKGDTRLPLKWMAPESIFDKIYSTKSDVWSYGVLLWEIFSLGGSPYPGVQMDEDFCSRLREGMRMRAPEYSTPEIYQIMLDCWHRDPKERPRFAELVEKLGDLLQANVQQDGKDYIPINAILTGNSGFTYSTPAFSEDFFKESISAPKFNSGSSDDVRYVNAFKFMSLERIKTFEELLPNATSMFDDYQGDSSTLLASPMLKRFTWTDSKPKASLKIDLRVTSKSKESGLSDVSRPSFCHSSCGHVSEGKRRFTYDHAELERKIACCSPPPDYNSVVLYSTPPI

[17] = molecular target: T3, Receptor-type tyrosine-protein kinase FLT3; experiment: Inhibition of FLT3 in human MV4-11 cells assessed as reduction in AKT phosphorylation at Ser473 residue after 4 hrs by Western blot analysis; format: cell-based
[18] = molecular target: T3, Receptor-type tyrosine-protein kinase FLT3; experiment: Inhibition of human FLT3 R595_E596 mutant by Hotspot assay
MV4-11 [19] = experiment: Induction of apoptosis in human MV4-11 cells assessed as necrotic cells at 0.5 uM after 24 hrs by Annexin V-FITC/propidium iodide staining based flow cytometry (reference value: 0%); format: functional
[20] = molecular target: T1, Receptor-type tyrosine-protein kinase FLT3; experiment: Binding affinity to human FLT3 D835Y mutant (Q580 to Y969 residues) expressed in bacterial expression system by Kinomescan method
[21] = molecular target: Receptor-type tyrosine-protein kinase FLT3 (Homo sapiens, UniProt P36888, D835V/ITD); experiment: Binding affinity to human FLT3 ITD/D835V double mutant expressed in bacterial expression system by Kinomescan method
[22] = molecular target: T3, Receptor-type tyrosine-protein kinase FLT3; experiment: Inhibition of FLT3 in human MV4-11 cells assessed as reduction in ERK1/2 phosphorylation at Thr202/Tyr204 residues after 4 hrs by Western blot analysis; format: cell-based
MV4-11 [23] = experiment: Growth inhibition of human MV4-11 cells harboring FLT3-ITD after 72 hrs by Cell-Titer Glo assay; format: functional, cell-based; conditions: MV4-11, 72 h
MOLM-13 = experiment: Growth inhibition of human MOLM13 cells harboring FLT3-ITD after 72 hrs by Cell-Titer Glo assay; format: functional, cell-based; conditions: MOLM-13, 72 h
MV4-11 [24] = experiment: Induction of apoptosis in human MV4-11 cells assessed as late apoptotic cells at 0.2 uM after 24 hrs by Annexin V-FITC/propidium iodide staining based flow cytometry (reference value: 0%); format: functional
K562 = experiment: Growth inhibition of FLT3 null human K562 cells after 72 hrs by Cell-Titer Glo assay; format: functional, cell-based; conditions: K562, 72 h
MV4-11 [25] = experiment: Induction of apoptosis in human MV4-11 cells assessed as late apoptotic cells at 0.5 uM after 24 hrs by Annexin V-FITC/propidium iodide staining based flow cytometry (reference value: 0%); format: functional
MV4-11 [26] = experiment: Induction of apoptosis in human MV4-11 cells assessed as live cells at 0.5 uM after 24 hrs by Annexin V-FITC/propidium iodide staining based flow cytometry (reference value: 100%); format: functional
[27] = molecular target: T4, Vascular endothelial growth factor receptor 2; experiment: Inhibition of human KDR at 0.123 uM by Hotspot assay relative to control
[28] = molecular target: Mast/stem cell growth factor receptor Kit (Homo sapiens, UniProt P10721); experiment: Inhibition of human KIT at 0.123 uM by Hotspot assay

## Cc1nc2c(c(Nc3c[nH]nc3C(=O)Nc3ccc(N4CCNCC4)cc3)n1)CCC2
MV4-11 [1]
  Activity: 23%
[2]
  Kd: 13.1 nM
[3]
  IC50: 1.79 nM
[4]
  inhibition: > 50%
[5]
  IC50: 14.9 nM
MV4-11 [6]
  Activity: 60.4%
[7]
  IC50: 23 nM
[8]
  inhibition: Dose-dependent effect
[9]
  IC50: 15.3 nM
[10]
  IC50: 94.6 nM
[11]
  IC50: 9.15 nM
HL-60
  IC50: 26700 nM
MV4-11 [12]
  Activity: Dose-dependent effect
[13]
  Activity: 91.2%
MV4-11 [14]
  Activity: 1.92%
[15]
  IC50: 6.97 nM
[16]
  IC50: 220 nM
[17]
  inhibition: Dose-dependent effect
[18]
  IC50: 8.74 nM
MV4-11 [19]
  Activity: 0.83%
[20]
  Kd: 5.33 nM
[21]
  Kd: 3.7 nM
[22]
  inhibition: Dose-dependent effect
MV4-11 [23]
  IC50: 16 nM
MOLM-13
  IC50: 37 nM
MV4-11 [24]
  Activity: 12.8%
K562
  IC50: 11600 nM
MV4-11 [25]
  Activity: 9.77%
MV4-11 [26]
  Activity: 29%
[27]
  inhibition: > 50%
[28]
  inhibition (INH): Not Active
